According to ChEMBL document CHEMBL4673282, “Identification of a New Heterocyclic Scaffold for Inhibitors of the Polo-Box Domain of Polo-like Kinase 1” (J Med Chem, 2020):
Converted amounts (≈) assume the structure as drawn.

assay: Aqueous solubility of compound; type: physicochemical; conditions: buffer

Row | SMILES | solubility
1 | CN1CCCC1CCn1c(=O)c2cc(F)ccc2n2c(=S)[nH]nc12 (racemic) | 17.8 µg/mL (≈ 51.2 µM)
2 | O=C(NCCCn1c(=O)c2cc(F)ccc2n2c(=S)[nH]nc12)C1CCOCC1 | < 1 µg/mL
3 | CC(C)(C)OC(=O)CC[C@@H](NC(=O)OC(C)(C)C)C(=O)NCCCn1c(=O)c2cc(F)ccc2n2c(=S)[nH]nc12 | 20.4 µg/mL (≈ 35.3 µM)
4 | O=c1c2ncccc2n2c(=S)[nH]nc2n1CCc1ccccc1 | 26.9 µg/mL (≈ 83.2 µM)
5 | CC(CN(C)C)n1c(=O)c2cc(F)ccc2n2c(=S)[nH]nc12 (racemic) | > 47 µg/mL
6 | NCCn1c(=O)c2cc(F)ccc2n2c(=S)[nH]nc12 | > 41 µg/mL
7 | O=C(O)CCC(=O)NCCCn1c(=O)c2cc(F)ccc2n2c(=S)[nH]nc12 | > 58 µg/mL
8 | O=C(NCCCn1c(=O)c2cc(F)ccc2n2c(=S)[nH]nc12)c1ccccc1 | 21.9 µg/mL (≈ 55.1 µM)
9 | O=c1c2ccc(F)cc2n2c(=S)[nH]nc2n1CCc1ccccc1 | < 1 µg/mL
10 | CNC(=S)N1CN(CCc2ccccc2)C(=O)c2cc(F)ccc21 | 4.5 µg/mL (≈ 13.1 µM)
11 | O=C(NCCCn1c(=O)c2cc(F)ccc2n2c(=S)[nH]nc12)C1CCCC1 | > 58 µg/mL
12 | CCCn1c(=O)c2cc(F)ccc2n2c(=S)[nH]nc12 | > 28 µg/mL
13 | CC(=O)NCCn1c(=O)c2cc(F)ccc2n2c(=S)[nH]nc12 | > 47 µg/mL
14 | N[C@@H](CCC(=O)O)C(=O)NCCOCCOCCOCCOCCC(=O)NCCCn1c(=O)c2cc(F)ccc2n2c(=S)[nH]nc12 | > 99 µg/mL
15 | O=c1c2cc(Cl)ccc2n2c(=S)[nH]nc2n1CCC(F)(F)F | 5.1 µg/mL (≈ 14.6 µM)
16 | CC(C)(C)OC(=O)NCCCCCC(=O)NCCCn1c(=O)c2cc(F)ccc2n2c(=S)[nH]nc12 | > 75 µg/mL
17 | O=C(NCCCn1c(=O)c2cc(F)ccc2n2c(=S)[nH]nc12)C1CCCNC1 (racemic) | 29.6 µg/mL (≈ 73.2 µM)
18 | O=c1c2ccccc2n2c(=S)[nH]nc2n1CCC(F)(F)F | 23.3 µg/mL (≈ 74.1 µM)
19 | CC(C)(C)OC(=O)NCCOCCOCCOCCC(=O)NCCCn1c(=O)c2cc(F)ccc2n2c(=S)[nH]nc12 | > 88 µg/mL

Row | SMILES | solubility
20 | O=c1c2cc(F)ccc2n2c(=S)[nH]nc2n1CCc1ccc(Cl)cc1 | 1.2 µg/mL (≈ 3.2 µM)
21 | O=c1c2ccccc2n2c(=O)[nH]nc2n1CCc1ccccc1 | < 1 µg/mL
22 | O=C(Cc1cccc(Cl)c1)NCCCn1c(=O)c2cc(F)ccc2n2c(=S)[nH]nc12 | > 66 µg/mL
23 | O=C(CC1CCNCC1)NCCCn1c(=O)c2cc(F)ccc2n2c(=S)[nH]nc12 | 37.5 µg/mL (≈ 89.6 µM)
24 | O=C(Cc1ccc(Br)cc1)NCCCn1c(=O)c2cc(F)ccc2n2c(=S)[nH]nc12 | < 1 µg/mL
25 | CCn1c(=O)c2cc(F)ccc2n2c(=S)[nH]nc12 | > 39 µg/mL
26 | NCCOCCOCCOCCC(=O)NCCCn1c(=O)c2cc(F)ccc2n2c(=S)[nH]nc12 | 36.1 µg/mL (≈ 72.7 µM)
27 | O=c1c2cccnc2n2c(=S)[nH]nc2n1CCc1ccccc1 | 4.9 µg/mL (≈ 15.2 µM)
28 | Cc1ccc2c(c1)c(=O)n(CCc1ccccc1)c1n[nH]c(=S)n21 | < 1 µg/mL
29 | CC(C)(C)[C@H]1CC[C@H](C(=O)NCCCn2c(=O)c3cc(F)ccc3n3c(=S)[nH]nc23)CC1 | 1.1 µg/mL (≈ 2.39 µM)
30 | CC(C)(C)OC(=O)N1CCN(CCn2c(=O)c3cc(F)ccc3n3c(=S)[nH]nc23)CC1 | 20.5 µg/mL (≈ 45.7 µM)
31 | CC(C)(C)OC(=O)CC[C@H](N)C(=O)NCCCn1c(=O)c2cc(F)ccc2n2c(=S)[nH]nc12 | 37.5 µg/mL (≈ 78.4 µM)
32 | O=c1c2cc(F)ccc2n2c(=S)[nH]nc2n1CCCc1ccccc1 | < 1 µg/mL
33 | CC(C)OCCCn1c(=O)c2cc(Cl)ccc2n2c(=S)[nH]nc12 | 8.6 µg/mL (≈ 24.4 µM)
34 | O=c1c2cc(I)ccc2n2c(=S)[nH]nc2n1CCc1ccccc1 | < 1 µg/mL
35 | CC(C)(C)OC(=O)CC[C@H](NC(=O)OC(C)(C)C)C(=O)NCCCn1c(=O)c2cc(F)ccc2n2c(=S)[nH]nc12 | 41.6 µg/mL (≈ 71.9 µM)
36 | CCCn1c(=O)c2ccccc2n2c(=S)n(CN(C)C3CC3)nc12 | Insoluble
37 | NCCCCCC(=O)NCCCn1c(=O)c2cc(F)ccc2n2c(=S)[nH]nc12 | 31.8 µg/mL (≈ 78.2 µM)

assay: Half life in rat liver microsomes at 1 uM measured up to 60 mins in presence of NADPH generating system; conditions: 1 h

Row | SMILES | t1/2
38 | CN1CCCC1CCn1c(=O)c2cc(F)ccc2n2c(=S)[nH]nc12 (racemic) | > 30 min
39 | CC(C)(C)OC(=O)CC[C@@H](NC(=O)OC(C)(C)C)C(=O)NCCCn1c(=O)c2cc(F)ccc2n2c(=S)[nH]nc12 | 25.1 min
40 | O=c1c2ncccc2n2c(=S)[nH]nc2n1CCc1ccccc1 | > 30 min
41 | CC(CN(C)C)n1c(=O)c2cc(F)ccc2n2c(=S)[nH]nc12 (racemic) | > 30 min
42 | NCCn1c(=O)c2cc(F)ccc2n2c(=S)[nH]nc12 | > 30 min
43 | O=C(O)CCC(=O)NCCCn1c(=O)c2cc(F)ccc2n2c(=S)[nH]nc12 | > 30 min
44 | O=C(NCCCn1c(=O)c2cc(F)ccc2n2c(=S)[nH]nc12)c1ccccc1 | > 30 min
45 | O=c1c2ccc(F)cc2n2c(=S)[nH]nc2n1CCc1ccccc1 | 22.7 min
46 | CNC(=S)N1CN(CCc2ccccc2)C(=O)c2cc(F)ccc21 | 2.2 min
47 | O=C(NCCCn1c(=O)c2cc(F)ccc2n2c(=S)[nH]nc12)C1CCCC1 | > 30 min
48 | CCCn1c(=O)c2cc(F)ccc2n2c(=S)[nH]nc12 | > 30 min
49 | CC(=O)NCCn1c(=O)c2cc(F)ccc2n2c(=S)[nH]nc12 | > 30 min
50 | N[C@@H](CCC(=O)O)C(=O)NCCOCCOCCOCCOCCC(=O)NCCCn1c(=O)c2cc(F)ccc2n2c(=S)[nH]nc12 | > 30 min
51 | O=c1c2cc(Cl)ccc2n2c(=S)[nH]nc2n1CCC(F)(F)F | > 30 min
52 | CC(C)(C)OC(=O)NCCCCCC(=O)NCCCn1c(=O)c2cc(F)ccc2n2c(=S)[nH]nc12 | > 30 min
53 | O=C(NCCCn1c(=O)c2cc(F)ccc2n2c(=S)[nH]nc12)C1CCCNC1 (racemic) | > 30 min
54 | O=c1c2ccccc2n2c(=S)[nH]nc2n1CCC(F)(F)F | > 30 min

Row | SMILES | t1/2
55 | CC(C)(C)OC(=O)NCCOCCOCCOCCC(=O)NCCCn1c(=O)c2cc(F)ccc2n2c(=S)[nH]nc12 | 27.9 min
56 | O=c1c2cc(F)ccc2n2c(=S)[nH]nc2n1CCc1ccc(Cl)cc1 | > 30 min
57 | O=C(Cc1cccc(Cl)c1)NCCCn1c(=O)c2cc(F)ccc2n2c(=S)[nH]nc12 | 8.4 min
58 | O=C(CC1CCNCC1)NCCCn1c(=O)c2cc(F)ccc2n2c(=S)[nH]nc12 | > 30 min
59 | O=C(Cc1ccc(Br)cc1)NCCCn1c(=O)c2cc(F)ccc2n2c(=S)[nH]nc12 | 20.6 min
60 | CCn1c(=O)c2cc(F)ccc2n2c(=S)[nH]nc12 | > 30 min
61 | NCCOCCOCCOCCC(=O)NCCCn1c(=O)c2cc(F)ccc2n2c(=S)[nH]nc12 | > 30 min
62 | O=c1c2cccnc2n2c(=S)[nH]nc2n1CCc1ccccc1 | > 30 min
63 | Cc1ccc2c(c1)c(=O)n(CCc1ccccc1)c1n[nH]c(=S)n21 | > 30 min
64 | CC(C)(C)[C@H]1CC[C@H](C(=O)NCCCn2c(=O)c3cc(F)ccc3n3c(=S)[nH]nc23)CC1 | > 30 min
65 | CC(C)(C)OC(=O)N1CCN(CCn2c(=O)c3cc(F)ccc3n3c(=S)[nH]nc23)CC1 | 26.3 min
66 | CC(C)(C)OC(=O)CC[C@H](N)C(=O)NCCCn1c(=O)c2cc(F)ccc2n2c(=S)[nH]nc12 | > 30 min
67 | O=c1c2cc(F)ccc2n2c(=S)[nH]nc2n1CCCc1ccccc1 | 8.8 min
68 | O=c1c2cc(I)ccc2n2c(=S)[nH]nc2n1CCc1ccccc1 | > 30 min
69 | CC(C)(C)OC(=O)CC[C@H](NC(=O)OC(C)(C)C)C(=O)NCCCn1c(=O)c2cc(F)ccc2n2c(=S)[nH]nc12 | 3.8 min
70 | NCCCCCC(=O)NCCCn1c(=O)c2cc(F)ccc2n2c(=S)[nH]nc12 | > 30 min

assay: in vitro; conditions: PAMPA
Description: Permeability of the compound by PAMPA

Row | SMILES | Papp
71 | O=C(NCCCn1c(=O)c2cc(F)ccc2n2c(=S)[nH]nc12)C1CCOCC1 | 8 ×10⁻⁶ cm/s
72 | CC(CN(C)C)n1c(=O)c2cc(F)ccc2n2c(=S)[nH]nc12 (racemic) | 186 ×10⁻⁶ cm/s
73 | O=C(O)CCC(=O)NCCCn1c(=O)c2cc(F)ccc2n2c(=S)[nH]nc12 | < 1 ×10⁻⁶ cm/s
74 | O=C(NCCCn1c(=O)c2cc(F)ccc2n2c(=S)[nH]nc12)c1ccccc1 | 267 ×10⁻⁶ cm/s
75 | O=c1c2ccc(F)cc2n2c(=S)[nH]nc2n1CCc1ccccc1 | 91 ×10⁻⁶ cm/s
76 | CNC(=S)N1CN(CCc2ccccc2)C(=O)c2cc(F)ccc21 | 161 ×10⁻⁶ cm/s
77 | O=C(NCCCn1c(=O)c2cc(F)ccc2n2c(=S)[nH]nc12)C1CCCC1 | 155 ×10⁻⁶ cm/s
78 | O=c1c2cc(Cl)ccc2n2c(=S)[nH]nc2n1CCC(F)(F)F | 257 ×10⁻⁶ cm/s
79 | CC(C)(C)OC(=O)NCCCCCC(=O)NCCCn1c(=O)c2cc(F)ccc2n2c(=S)[nH]nc12 | 405 ×10⁻⁶ cm/s
80 | O=c1c2ccccc2n2c(=S)[nH]nc2n1CCC(F)(F)F | 82 ×10⁻⁶ cm/s
81 | O=c1c2cc(F)ccc2n2c(=S)[nH]nc2n1CCc1ccc(Cl)cc1 | < 1 ×10⁻⁶ cm/s
